# Test results published in paper PMC8795149, “Characterization of a novel non-steroidal glucocorticoid receptor agonist optimized for topical treatment” (Scientific Reports, 2022).
# Columns and labels:
# [1] = system: LPS-induced TNF-alpha release in PBMCs; assay: TNF-alpha inhibition assay, human PBMCs; format: cell-based; details: for EC50: geometric mean; for Potency compared to LEO 134310, TNF-alpha release: human PBMC assay
# Experimental: (§1) PMBCs were isolated from human buffy coats or animal whole blood (EDTA-treated). Buffy coats from anonymized healthy adult blood donors were obtained from the Blood Bank of the National University Hospital Copenhagen in accordance with national legislation. Whole blood from mice (obtained from Charles River) was sampled at the animal facility at LEO Pharma and whole blood from pigs was sourced from ScanTox. Test compounds and PBMCs were incubated with 1 µg/ml LPS (Sigma) overnight at 37 °C in HEPES and Glutamax-containing RPMI medium supplemented with either 0.5% human serum albumin (human PBMCs) or 10% fetal bovine serum (mouse and pig PBMCs) and penicillin/streptomycin. TNF-alpha was measured using AlphaLISA (Perkin Elmer).
# (§2) IC50 of test compounds was determined by 10-point titrations in duplicates. IC50 values and other parameters were calculated by sigmoidal curve fitting in Assay Explorer.
# [2] = system: LPS-induced TNF-alpha release in PBMCs; assay: TNF-alpha inhibition assay, mouse PBMCs; format: cell-based; details: for EC50: geometric mean
# Experimental: as §1, §2
# [3] = molecular target: T1, mineralocorticoid receptor (MR) (Homo sapiens, UniProt P08235); assay: MR agonist assay, MR-luciferase reporter cells; format: cell-based; details: 24 h incubation; 'in contrast' = unlike LEO 134310, which gave no significant activation
# T1 sequence (P08235 1-984): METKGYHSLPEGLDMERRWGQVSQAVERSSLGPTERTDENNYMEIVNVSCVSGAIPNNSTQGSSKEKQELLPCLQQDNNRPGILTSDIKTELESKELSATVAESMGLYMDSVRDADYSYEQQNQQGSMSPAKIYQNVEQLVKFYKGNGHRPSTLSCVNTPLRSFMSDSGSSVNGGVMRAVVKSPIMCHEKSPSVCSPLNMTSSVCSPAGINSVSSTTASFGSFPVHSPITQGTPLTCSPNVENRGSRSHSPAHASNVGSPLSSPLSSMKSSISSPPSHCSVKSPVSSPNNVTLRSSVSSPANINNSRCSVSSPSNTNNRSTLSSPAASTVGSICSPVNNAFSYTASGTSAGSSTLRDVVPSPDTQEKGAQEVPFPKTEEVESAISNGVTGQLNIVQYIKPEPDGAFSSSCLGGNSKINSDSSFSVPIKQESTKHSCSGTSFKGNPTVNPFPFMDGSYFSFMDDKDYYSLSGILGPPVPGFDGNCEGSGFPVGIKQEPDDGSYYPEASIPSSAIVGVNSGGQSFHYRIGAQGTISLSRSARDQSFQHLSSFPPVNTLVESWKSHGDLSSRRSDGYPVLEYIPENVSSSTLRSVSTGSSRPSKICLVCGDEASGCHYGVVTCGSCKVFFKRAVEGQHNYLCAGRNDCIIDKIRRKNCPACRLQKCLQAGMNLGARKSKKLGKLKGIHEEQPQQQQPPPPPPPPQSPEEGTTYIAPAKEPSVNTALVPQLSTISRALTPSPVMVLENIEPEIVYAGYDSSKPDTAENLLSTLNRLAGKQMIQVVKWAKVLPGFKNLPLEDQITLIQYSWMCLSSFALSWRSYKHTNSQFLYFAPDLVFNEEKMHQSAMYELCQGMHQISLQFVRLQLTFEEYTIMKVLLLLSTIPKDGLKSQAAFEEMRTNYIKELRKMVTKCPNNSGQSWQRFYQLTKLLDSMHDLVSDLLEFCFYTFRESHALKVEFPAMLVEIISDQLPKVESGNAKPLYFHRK
# Experimental: Assays were performed at Indigo Biosciences according to standard protocols. In brief, MR-luciferase reporter cells were incubated with medium containing charcoal-stripped fetal bovine serum and incubated with test and reference compounds for 24 h before measuring luminescence. Data were fitted by the means of four parameter logistic regression.
# [4] = system: GILZ mRNA; assay: Human skin explant, GILZ gene expression; format: cell-based; details: human skin explants, topical, 24 h; for GILZ Relative ED50: weighted geometric mean ± SD
# Experimental: (§3) NativeSkin models (NS002) were purchased from Genoskin, France. Human skin samples from abdominal reduction surgery were obtained by Genoskin from donors upon written informed consent. Full ethical approval for the study protocol was obtained from the French ethical research committee (Comité de Protection des Personnes), and authorization was given by the French Ministry of Research. The study was conducted according to the Declaration of Helsinki. 8 mm punch biopsies were excised and embedded in a fibrin-based matrix in transwells and a silicone ring was firmly attached to the surface covering the outer edge of the skin biopsy to prevent lateral diffusion of topically applied formulations. Skin models were cultured in a defined hydrocortisone- and serum-free medium provided by Genoskin.
# (§4) LEO 134310 and reference glucocorticoids were dissolved in propylene carbonate and tested at 4 concentrations in five- or tenfold titrations. Compounds were applied in duplicates or triplicates on the skin surface (0.5 cm^2) in a volume of 2 µL and incubated for 24 h. Vehicle and untreated samples were included for basal level of expression.
# (§5) RNA was extracted and qPCR was performed using TaqMan gene expression assays (FKBP5-Hs01561006_m1, TSC22D3 (GILZ)-Hs00608272_m1, TXNIP-Hs01006900_g1, ACTB-Hs99999903_m1, PPIA-Hs99999904_m1, GAPDH-Hs99999905_m1). Gene expression of FKBP5,TSC22D3 (GILZ), and TXNIP was normalized to the geometric mean of the reference genes ACTB, PPIA and GAPDH.
# (§6) Doses were expressed as compound (API) concentrations (µg/mL) in the applied formulations. Relative upregulation of FKBP5 was estimated as − fold to vehicle treated control. Effective doses (Emax and ED50) were determined from a sigmoid Emax model in Phoenix64 version 8.0, Pharsight, Certara. Mean values and standard deviation of Emax and ED50 were calculated by weighing individual experiments based on the intra- and inter-experiment variability.
# [5] = system: TXNIP mRNA; assay: Human skin explant, TXNIP gene expression; format: cell-based; details: human skin explants, topical, 24 h; for TXNIP Relative ED50: weighted geometric mean ± SD
# Experimental: as §3, §4, §5, §6
# [6] = system: minipig skin; assay: Local tolerance study in minipigs (skin atrophy); format: in vivo; details: for Discoloration of application sites: 4 weeks topical; for Reduction in epidermal thickness: 4 weeks, vs untreated and vehicle controls
# Experimental: 5 male Göttingen SPF minipigs (5–7 months old; body weight 12–15 kg) were obtained from Ellegaard Göttingen Minipigs A/S, Dalmose, Denmark.
# Each animal was treated for 6 h daily over 28 days with 25 µL of the following topical formulations on an application area of 2.5 cm × 2.5 cm: Vehicle (transcutol:acetone (1:9) with 10% hydroxy-propyl-cellulose); Dermovate cream (CP 0.05%), CP 0.05% in vehicle; Betnovate cream (BMV 0.1%); BMV 0.1% in vehicle; LEO 134310 2% in vehicle. One test field on each animal remained untreated.
# Formulations were spread uniformly over the indicated clipped area and covered with porous gauze dressing. At the end of each exposure period all application site as well as the untreated area were rinsed with a mild soap (Abena Mild cream soap, Abena A/S, Denmark) in water and dried with a paper towel.
# Skin biopsies were taken from anaesthetized animals 24 h after the last treatment. Samples for histopathological examination were fixed in phosphate buffered neutral 4% formaldehyde and stained with H&E. Mean arithmetic epidermal thickness was determined by measuring epidermal area, excluding stratum corneum, and dividing this area with the length of the epidermis. All measurements were performed on H&E stained and scanned slides using the Visiopharm software.
# [7] = CP 0.05%, BMV 0.1%, 6 h daily semi-occlusion
structure (smiles),measurement,setting,value
"CCCCC(=O)O[C@]1(C(=O)CO)[C@@H](C)C[C@H]2[C@@H]3CCC4=CC(=O)C=C[C@]4(C)[C@@]3(F)[C@@H](O)C[C@@]21C [BMV, Betamethasone Valerate]",Emax,"[1]; PBMC, Human PBMCs",79%
same,EC50,"[1]; PBMC, Human PBMCs",3.2 nM
same,"Potency compared to LEO 134310, TNF-alpha release",[1],equipotent
same,Emax,[2]; PBMC,95%
same,EC50,[2]; PBMC,0.22 nM
same,Activation of MR (luciferase activity),[3],in contrast
same,GILZ Emax,[4],6.1 ± 3.7 fold to control
same,GILZ Relative ED50,[4],5.1 ± 27 µg/mL
same,TXNIP Emax,[5],17 ± 17 fold to control
same,TXNIP Relative ED50,[5],52 ± 15 µg/mL
same,Discoloration of application sites,[6],notable discoloration was observed in most application sites
same,Reduction in epidermal thickness,[6]; [7],30–40%
"CCC(=O)O[C@]1(C(=O)CCl)[C@@H](C)C[C@H]2[C@@H]3CCC4=CC(=O)C=C[C@]4(C)[C@@]3(F)[C@@H](O)C[C@@]21C [CP, Clobetasol Propionate]",Emax,"[1]; PBMC, Human PBMCs",79%
same,EC50,"[1]; PBMC, Human PBMCs",0.52 nM
same,"Potency compared to LEO 134310, TNF-alpha release",[1],fourfold more potent
same,Emax,[2]; PBMC,95%
same,EC50,[2]; PBMC,0.15 nM
same,Activation of MR (luciferase activity),[3],in contrast
same,GILZ Emax,[4],7.7 ± 2.5^NS fold to control
same,GILZ Relative ED50,[4],1.1 ± 0.25^NS µg/mL
same,TXNIP Emax,[5],19 ± 8.5^NS fold to control
same,TXNIP Relative ED50,[5],1.3 ± 0.33 µg/mL
same,Discoloration of application sites,[6],notable discoloration was observed in most application sites
same,Reduction in epidermal thickness,[6]; [7],30–40%
C[C@H](NC(=O)[C@H]1CCCO1)[C@H](Oc1ccc(C(=O)O[C@H]2CCCN(C(=O)[C@H]3COC(=O)C3)C2)cc1)c1ccc(C2CC2)cc1 [LEO 134310],Inhibition of LPS-induced TNF-alpha release Emax,[1]; Human PBMCs,77%
same,EC50,[1]; Human PBMCs,2.3 nM
same,Inhibition of LPS-induced TNF-alpha release Emax,[2],102%
same,EC50,[2],0.58 nM
same,Activation of MR (luciferase activity),[3],No significant activation of MR
same,GILZ Emax,[4],6.7 ± 2.7^NS fold to control
same,GILZ Relative ED50,[4],270 ± 110 µg/mL
same,TXNIP Emax,[5],19 ± 7.3^NS fold to control
same,TXNIP Relative ED50,[5],110 ± 300^NS µg/mL
same,Reduction in epidermal thickness,"[6]; LEO 134310 2%, 6 h daily",did not result in any significant reduction in epidermal thickness
